How the values were obtained:
Format in all cases: cell-based, Escherichia coli
[1] = test system: E. coli clinical strain 7426; test: cAST platform antimicrobial susceptibility testing (resazurin, capillary format)
Procedure: (§1) The disclosure includes use of steel capillary tubes of size 50 mm×1.59 mm×0.76 mm (L×O.D.×I.D.) to hold the samples. Alternatively, glass capillary tubes (Drummond Scientific) of similar size can also be used. However, in the case of glass, the ends of the tubes are coated with paint or a similar substance to prevent excess light from the LEDs leaking into the fiber-optic detector. During sample loading, 4 μL liquid culture droplets were individually pipetted onto a clean substrate and then loaded into the tubes via capillary action. The capillary tubes used as conduits were sterilized prior to loading through autoclaving. Following loading, tubes were inserted into the sample holder in a configuration that allows light from the LEDs to pass through the sample and into the fiber-optic detector. Since the volume capacity of the capillary tubes was higher than the sample volume of 4 μL, the tubes were loaded with the fluid-filled side near the light-source as this configuration was determined to yield higher signal-to-noise ratios. This approach to sample loading is encompassed by the disclosure. During AST, the cAST platform was placed inside a benchtop incubator (Corning) set to 37° C. in ambient air. A small portable humidifier was also placed inside the incubator (80-85% relative humidity) to minimize sample drying during incubation. Thus, in embodiments, a system of the disclosure may include a humidifying device or composition to act as […]. Every 30 min, spectral intensity measurements were automatically taken for each sample and data were transferred and stored on a computer for processing using OceanView (Ocean Optics).
(§2) The cAST platform was initially used to test five different quality control (QC) strains: Escherichia coli ATCC 25922, Enterobacter cloacae ATCC 13047, Acinetobacter baumannii ATCC BAA-747, Pseudomonas aeruginosa ATCC 27853, and Escherichia coli K12 ER2267 (kanamycin resistant). To prepare inocula for AST, strains were first streaked on Mueller-Hinton II agar plates (Becton, Dickinson and Company) and incubated overnight at 37° C. in ambient air. For the kanamycin resistant E. coli K12 strain, the agar was supplemented with kanamycin (MilliporeSigma) at a final concentration of 50 μg/mL. Liquid cultures were then prepared by inoculating single colonies into CAMHB, followed by overnight incubation at 37° C. in ambient air. […] Using a spectrophotometer (V-1200, VWR), the OD625nm absorbance corresponding to a 0.5 McFarland standard was verified to be in the range of 0.08-0.13^21. […] Resazurin is a redox indicator that is reduced by metabolically active cells into resorufin, leading to significant colorimetric and fluorescent changes in the culture media which can be measured to gauge bacterial growth^20. […]

[2] = test system: E. coli clinical strain 7704; test: as above
Procedure: as §1, §2

[3] = test system: E. coli clinical strain 7426; test: clinical gradient diffusion (E-test, bioMérieux); conditions: gradient diffusion overnight
Procedure: (§3) Following testing of the QC strains, the cAST platform was used to test two E. coli clinical isolates. Following the same protocol used to test the QC strains, the clinical isolates were tested with ten two-fold dilution gentamicin concentrations spanning 0.5 μg/mL to 256 μg/mL. Testing was conducted blind and results were subsequently compared with clinical results generated using gradient diffusion (E-test, bioMérieux).

[4] = test system: E. coli clinical strain 7704; test: clinical gradient diffusion (E-test, bioMérieux); conditions: gradient diffusion overnight
Procedure: as §3

[5] = cAST in categorical agreement with gradient diffusion

## gentamicin
[1]; cAST at 6 h
  predicted MIC: 128 µg/mL
[1]; [5]
  susceptibility category: resistant (resistant (≥16 μg/mL))
[2]; cAST at 6 h
  predicted MIC: 1 µg/mL
[2]; [5]
  susceptibility category: susceptible (susceptible (≤4 μg/mL))
[3]
  MIC: ≥ 256 µg/mL
[4]
  MIC: 1.5 µg/mL
